Source: patent publication US12240920B2, “Cyclic peptidomimetic for the treatment of neurological disorders” (Brown University, priority 2019, dated 2025)

Experiments:
in vivo = conditions: plasma
[1] = test system: repeated corticosterone-injected rats; conditions: CORT administration model; cited from earlier work

Question: Which half-life (in vivo) does the source give for `CC(C)[C@H](NC(=O)[C@@H]1CCC(=O)NCCC(=O)NCCCC[C@H](NC(=O)[C@H](CCCCN)NC(=O)[C@H](Cc2ccc(O)cc2)NC(=O)[C@H](CC(N)=O)NC(=O)[C@H](CCCCN)NC(=O)[C@@H](N)CSSC[C@@H](N)C(=O)N[C@@H](CCCNC(=N)N)C(=O)N[C@@H](CCCNC(=N)N)C(=O)N[C@@H](CCCNC(=N)N)C(=O)N[C@@H](CCCNC(=N)N)C(=O)N[C@@H](CCCNC(=N)N)C(=O)N[C@@H](CCCNC(=N)N)C(=O)N[C@@H](CCCNC(=N)N)C(N)=O)C(=O)N[C@@H]([C@@H](C)O)C(=O)N1)C(=O)O` [CN2097, R7Cs-sCYK[KTE(β-Ala)]V] here?
Answer: The half-life was ~1 h.

Question: For `CNC1(c2ccccc2Cl)CCCCC1=O` (centres unmarked) [ketamine], which depressive-like behavior [1] is on record?
Answer: Its depressive-like behavior is “significantly reduced depressive-like behavior”.
